Assay results reported in US20050101783A1, “N-(heterocycle-methyl)alkylamine derivative, process for producing the same, and bactericide” (priority 2000, published 2005).

Tests used:
[1] = system: Aspergillus fumigatus; assay: Antibacterial test to Aspergillus fumigatus (96-hole plate, IC80); format: cell-based; details: YNB culture with 0.22% low melting point-agarose, 1×10^4 cell/ml, 25° C., 72 hours, absorbance at 620 nm
Protocol: (Antibacterial Test to Aspergillus fumigatus)
In the test example, a test was performed on the antibacterial of the compounds according to the present invention to Aspergillus fumigatus in the method later described.
Aspergillus fumigatus was cultivated in Sabouraud's agar at 37° C. for 3 days, after the spores to be used for the test were formed, the spore suspension was prepared. The spore suspension was suspended in YNB culture to which a 0.22% low melting point-agarose was added so as to allow the final concentration to be 1×10^4 cell/ml, and the solution was poured into each hole on a 96-hole flat-bottomed plate. Next, the dilution trains using each of the compounds according to the present invention were added, the solution was cultivated at 25° C. for 72 hours, and the propagation rate of the mold was evaluated by measuring the absorbance at 620 nm. With such a test, the propagation rate of the mold in the chemical-free test area was compared with this case to find the concentration of the compound where the propagation rate of the mold is suppressed by 80% as IC 80 (80% growth inhibition concentration).

[2] = system: Erysiphe graminis f. sp tritici; assay: Preventive effect test of wheat powdery mildew (wettable powder sprayed on potted wheat, preventive value); format: in vivo; details: wettable powder suspended at 250 mg/l, sprayed on potted wheat at 100 l/10 a; morbidity investigated 9th to 14th day after inoculation
Protocol: (Preventive Effect Test of Erysiphe graminis f. sp […])
The wettable powders obtained by using each compound were diluted with water and were suspended at a predetermined concentration (250 mg/l) and the solution was sprayed over the first to second leaf stage-wheat (variety. Agriculture and Forestry No. 64) cultivated by using a square plastic pot (size: 6.4 cm×6.4 cm) at a rate of 100 1/10 a (are).
After the sprayed leaves were air-dried, the suspension of the spore of Erysiphe graminis f. sp tritici germ sampled from the contracted leaves were sprayed and inoculated over the sprayed leaf after air-dried, the leaves were kept at 20 to 24° C. under a high-humidity condition for 24 hours, then, the leaves were subjected to still standing in a greenhouse (temperature: 20 to 24° C. and relative humidity: 20 to 70 RH). The morbidity rate was investigated based on the following investigation standard on 9th to 14th day after the inoculation and the preventive value was calculated according to the following formula 1.

[3] = system: Botrytis cinerea; assay: Antibacterial test to various phytopathogen, PDA plate culture, suppression of mold elongation; format: cell-based; details: final concentration 100 mg/l, 1 to 3 days; for inhibition at 100 µg/mL: Botrytis cinerea, read-out: Inhibition Rate of Growth (suppression rate of the mold elongation, 5-step grade) B.c.
Protocol: (§1) (Antibacterial Test to Various Phytopathogen)
(§2) In the test examples, a test was performed on the antibacterial of the compounds according to the present invention to various phytopathogenic molds in the methods later described.
(§3) The compounds of 10 mg were each weighed and they were each dissolved in dimethylsulfoxide of 1 ml. The solution of 0.6 ml was added to PDA culture medium (potato-dextrose-agar culture medium) of 60 ml at about 60° C, the solutions were well mixed in an Erlenmeyer flask of 100 ml, and the solution was poured into a Schale and was solidified therein to prepare a plate culture containing the compound according to the present invention of final concentration of 100 mg/l.
(§4) On the other hand, the sample molds on the plate cultured beforehand were punched by a cork borer of diameter of 4 mm, and they were inoculated on the plate culture containing the aforementioned chemical material. After the inoculation, the molds were inoculated at the appropriate growth temperatures of each mold (for the appropriate growth temperatures, for example, the Reference, LIST OF CULTURE 1996 MICROORGANISM 10th edition published by Institute for Fermentation can be referred to.) for 1 to 3 days, the growth rates of the molds were evaluated by measuring the diameter of a colony. The growth rate of the mold thus obtained on the plate culture containing the chemical material is compared with the growth rate of the mold in the non-addition area of the chemical material to find the suppression rate of the mold elongation by the following formula 3. R=100 (dc−dt)/dc (Formula 3) [wherein, R is the suppression rate of the mold elongation (%), dc is the diameter of a colony on an untreated plate and dt is the diameter of a colony on a chemical-treated plate, respectively.]
(§5) • 5: Mold whose suppression rate of the mold elongation is • 90% or higher • 4: Mold whose suppression rate of the mold elongation is less than 90% and 70% or higher • 3: Mold whose suppression rate of the mold elongation is less than 70% and 40% or higher • 2: Mold whose suppression rate of the mold elongation is less than 40% and 20% or higher • 1: Mold whose suppression rate of the mold elongation is less than 20%
(§6) In addition, the meanings of the abbreviated letters in Table 22 are as follows: • B. c.; Botrytis cinerea • P. h.; Pseudocercosporella herpotrichoides • M. n.; Microdohium nivale • L. n.; Leptosphaeria nodorum

[4] = system: Leptosphaeria nodorum; assay: as above; format: cell-based; details: final concentration 100 mg/l, 1 to 3 days; for inhibition at 100 µg/mL: Parastagonospora nodorum, read-out: Inhibition Rate of Growth (suppression rate of the mold elongation, 5-step grade) L.n.
Protocol: as §1, §2, §3, §4, §5, §6

[5] = system: Microdohium nivale; assay: as above; format: cell-based; details: final concentration 100 mg/l, 1 to 3 days; for inhibition at 100 µg/mL: read-out: Inhibition Rate of Growth (suppression rate of the mold elongation, 5-step grade) M.n.
Protocol: as §1, §2, §3, §4, §5, §6

[6] = system: Pseudocercosporella herpotrichoides; assay: as above; format: cell-based; details: final concentration 100 mg/l, 1 to 3 days; for inhibition at 100 µg/mL: Oculimacula yallundae, read-out: Inhibition Rate of Growth (suppression rate of the mold elongation, 5-step grade) P.h.
Protocol: as §1, §2, §3, §4, §5, §6

[7] = system: Venturia inaequalis; assay: as above; format: cell-based; details: final concentration 100 mg/l, 1 to 3 days; for inhibition at 100 µg/mL: Venturia inaequalis, read-out: Inhibition Rate of Growth (suppression rate of the mold elongation, 5-step grade) V.i.
Protocol: as §1, §2, §3, §4, §5
V. i.: Venturia inaequalis

[8] = system: cucumber gray mold; assay: Preventive effect test of cucumber gray mold (wettable powder sprayed on potted cucumber, preventive value); format: in vivo; details: wettable powder suspended at 250 mg/l, sprayed on potted cucumber at 100 l/10 a; morbidity investigated 4th to 6th day after inoculation
Protocol: (Preventive Effect Test of Cucumber Gray Mold)
The wettable powders obtained by using each compound were diluted with water and were suspended at a predetermined concentration (250 mg/l) and the solution was sprayed over the first to second leaf stage-cucumber (variety: “Sagamihanpakufushinari”) cultivated by using a square plastic pot (size: 6.4 cm×6.4 cm) at a rate of 100 1/10 a.
After the sprayed leaves were air-dried, a paper disk where the solution of the spore of the gray mold suspended with water was impregnated was put on the aforementioned sprayed leaves, and the leaves were contracted in a glass greenhouse (temperature: 20 to 24° C. and relative humidity: 20 to 70 RH). The morbidity rate was investigated based on the following investigation standard on 4th to 6th day after the inoculation and the preventive value was calculated according to the following formula 2.

[9] = system: cucumber powdery mildew; assay: Preventive effect of cucumber powdery mildew (wettable powder sprayed on potted cucumber, preventive value); format: in vivo; details: wettable powder suspended at 100 mg/l, sprayed on potted cucumber at 100 l/10 a; morbidity investigated 9th to 14th day after inoculation
Protocol: (Preventive Effect of Cucumber Powdery Mildew)
The wettable powders obtained by using each compound were diluted with water and were suspended at a predetermined concentration (100 mg/l) and the solution was sprayed over the first to second leaf stage-cucumber (variety: “Sagamihanpakufushinari”) cultivated by using a square plastic pot (size: 6.4 cm×6.4 cm) at a rate of 100 1/10 a.
After the sprayed leaves were air-dried, the spore was inoculated over the aforementioned air-dried leaves from the contracted leaves with a brush, and the contraction was performed in a glass greenhouse (temperature: 20 to 24° C. and relative humidity: 20 to 70 RH). The morbidity rate was investigated based on the same investigation standard as that in the preventive effect test of the cucumber gray mold on 9th to 14th day after the inoculation, and the preventive value was calculated according to the aforementioned formula 2.

`CC(C)(CNCc1ccccn1)Cc1ccc(C(C)(C)C)cc1` [Compound I-1] was tested, and the “80% Growth Inhibition Concentration (IC80)” value [1] was 5 µg/mL.
`CC(C)(CNCc1ccc(Cl)nc1)Cc1ccc(C(C)(C)C)cc1` [Compound I-2] was tested, and the “Preventive Value (%)” value [2] was 100% and the “80% Growth Inhibition Concentration (IC80)” value [1] was 38 µg/mL.
`CC(C)(CNCc1ccc(Cl)nc1)Cc1ccccc1Cl` [Compound I-3] was tested, and the “80% Growth Inhibition Concentration (IC80)” value [1] was 9 µg/mL.
`CC(C)(CNCc1cnc(Cl)cn1)Cc1ccc(C(C)(C)C)cc1` [Compound I-5] was tested, and the “80% Growth Inhibition Concentration (IC80)” value [1] was 9 µg/mL.
For `Cn1cc(CNCC(C)(C)Cc2ccccc2F)cn1` [Compound I-7], the “80% Growth Inhibition Concentration (IC80)” value [1] was 150 µg/mL.
With `Cn1cc(CNCC(C)(C)Cc2ccc(F)cc2F)cn1` [Compound I-9] the “80% Growth Inhibition Concentration (IC80)” value [1] was 150 µg/mL.
`CN(Cc1ccc(Cl)nc1)CC(C)(C)Cc1ccc(C(C)(C)C)cc1` [Compound I-18, N-[3-(4-t-butylphenyl)-2,2-dimethylpropyl]-6-chloro-N-methyl-3-pyridylmethylamine] was tested, and the “Preventive Value (%)” value [2] was 100%, the inhibition at 100 µg/mL [3] was no less than 90% and the inhibition at 100 µg/mL [4] was no less than 90%. For the same compound, the inhibition at 100 µg/mL [5] was no less than 90%, the inhibition at 100 µg/mL [6] was no less than 90% and the inhibition at 100 µg/mL [7] was no less than 90%.
In the case of `CC(C)(CNCc1ccc(Cl)nc1)Cc1ccc(OC(F)(F)F)cc1` [Compound I-45, 6-chloro-N-[2,2-dimethyl-3-(4-trifluoromethoxyphenyl)propyl]-3-pyridylmethylamine], the “Preventive Value (%)” value [2] is reported as 100%, the “Preventive Value (%)” value [8] is reported as 100% and the “Preventive Value (%)” value [9] is reported as 100%. It also gave an inhibition at 100 µg/mL [3] of no less than 90%, an inhibition at 100 µg/mL [4] of no less than 90% and an inhibition at 100 µg/mL [5] of no less than 90%. For the same compound, the inhibition at 100 µg/mL [6] was no less than 90% and the inhibition at 100 µg/mL [7] was no less than 90%.
With `CC(CCc1cc(Cl)cc(Cl)c1)CN(C)Cc1ccc(Cl)nc1` (centres unmarked) [Compound I-57] the “Preventive Value (%)” value [2] was 100%, the “Preventive Value (%)” value [9] was 100% and the “Inhibition Rate of Growth (suppression rate of the mold elongation, 5-step grade) B.c.” value [3] was 5 (Mold whose suppression rate of the mold elongation is • 90% or higher). For the same compound, the “Inhibition Rate of Growth (suppression rate of the mold elongation, 5-step grade) L.n.” value [4] was 5 (Mold whose suppression rate of the mold elongation is • 90% or higher), the “Inhibition Rate of Growth (suppression rate of the mold elongation, 5-step grade) M.n.” value [5] was 5 (Mold whose suppression rate of the mold elongation is • 90% or higher) and the “Inhibition Rate of Growth (suppression rate of the mold elongation, 5-step grade) P.h.” value [6] was 5 (Mold whose suppression rate of the mold elongation is • 90% or higher). The “Inhibition Rate of Growth (suppression rate of the mold elongation, 5-step grade) V.i.” value [7] was 5 (Mold whose suppression rate of the mold elongation is • 90% or higher).
In the case of `CC(CCc1cccc(OC(F)(F)F)c1)CN(C)Cc1ccc(Cl)nc1` (centres unmarked) [Compound I-58, 6-chloro-N-[2-methyl-4-(3-trifluoromethoxyphenyl)butyl]-N-methyl-3-pyridylmethylamine], the “Preventive Value (%)” value [2] is reported as 100%, the inhibition at 100 µg/mL [3] is reported as no less than 90% and the inhibition at 100 µg/mL [4] is reported as no less than 90%. The inhibition at 100 µg/mL [5] was no less than 90%, the inhibition at 100 µg/mL [6] was no less than 90% and the inhibition at 100 µg/mL [7] was no less than 90%.
`CC(CCc1ccc(OC(F)(F)F)cc1)CN(C)Cc1ccc(Cl)nc1` (centres unmarked) [Compound I-60] was tested, and the “Preventive Value (%)” value [2] was 100%, the “Preventive Value (%)” value [8] was 100% and the “Inhibition Rate of Growth (suppression rate of the mold elongation, 5-step grade) B.c.” value [3] was 5 (Mold whose suppression rate of the mold elongation is • 90% or higher). The “Inhibition Rate of Growth (suppression rate of the mold elongation, 5-step grade) L.n.” value [4] was 5 (Mold whose suppression rate of the mold elongation is • 90% or higher), the “Inhibition Rate of Growth (suppression rate of the mold elongation, 5-step grade) M.n.” value [5] was 5 (Mold whose suppression rate of the mold elongation is • 90% or higher) and the “Inhibition Rate of Growth (suppression rate of the mold elongation, 5-step grade) P.h.” value [6] was 5 (Mold whose suppression rate of the mold elongation is • 90% or higher). The “Inhibition Rate of Growth (suppression rate of the mold elongation, 5-step grade) V.i.” value [7] was 5 (Mold whose suppression rate of the mold elongation is • 90% or higher).
`CN(Cc1ccc(Br)nc1)CC(C)(C)Cc1ccc(OC(F)(F)F)cc1` [Compound I-139] was tested, and the “Preventive Value (%)” value [2] was 100%, the “Preventive Value (%)” value [8] was 100% and the “Preventive Value (%)” value [9] was 100%.
`CN(Cc1ccc(F)nc1)CC(C)(C)Cc1ccc(OC(F)(F)F)cc1` [Compound I-140] was tested, and the “Preventive Value (%)” value [2] was 100%, the “Preventive Value (%)” value [8] was 100% and the “Preventive Value (%)” value [9] was 100%.
For `CN(Cc1ccc(C(F)(F)F)nc1)CC(C)(C)Cc1ccc(OC(F)(F)F)cc1` [Compound I-141], the “Preventive Value (%)” value [2] was 100%, the “Preventive Value (%)” value [8] was 100% and the “Preventive Value (%)” value [9] was 100%.
For `CN(Cc1cnc(Cl)s1)CC(C)(C)Cc1ccc(OC(F)(F)F)cc1` [Compound I-142], the “Preventive Value (%)” value [2] was 100%, the “Preventive Value (%)” value [8] was 100% and the “Preventive Value (%)” value [9] was 100%.
